According to paper PMC8160025 (Nanomedicine : nanotechnology, biology, and medicine, 2020):

Columns and labels:
[1] = test system: serum protein; assay: Unbound vismodegib over time after incubation in FBS; format: in vitro ADME, bovine; conditions: 30 min incubation
[2] = Spatial distribution of vismodegib in brain sections by IR-MALDESI; format: in vivo, mouse; conditions: 4 h after IP injection
[3] = cited from earlier work
[4] = 4 h
[5] = test system: albumin; conditions: 4 h post administration, SPE
[6] = test system: SHH-driven medulloblastoma; assay: Survival; format: in vivo, mouse; conditions: 100 mg/kg IP or orally, or 50 mg/kg IP
[7] = Bone toxicity: femur length by CT scan and direct measurement; format: in vivo, mouse; conditions: 4 daily doses of 100 mg/kg IP from P10
[8] = children; cited from earlier work
[9] = Pharmacokinetics by LC-MS in medulloblastoma-bearing G-Smo mice; conditions: mouse, in vivo, ip, 100 mg/kg
[10] = test system: phosphorylated RB (pRB); assay: Pharmacodynamics: pRB+ / PCNA proliferation markers in G-Smo medulloblastoma; format: in vivo, mouse; conditions: for suppression of pRB+ cell fraction in tumors: 24 h

SMILES: CS(=O)(=O)c1ccc(C(=O)Nc2ccc(Cl)c(-c3ccccn3)c2)c(Cl)c1 [vismodegib]
- unbound fraction of total vismodegib [1]: marginal
- distribution of vismodegib in tumor and forebrain [2]: evenly distributed
- oral bioavailability [3]: 31.8%
- vismodegib level in serum ([4]; 100 mg/kg, systemic (IP)): comparable levels to POx-vismo
- vismodegib concentrations in blood, tumor and forebrain compared to POx-vismo ([4]; oral gavage): significantly lower
- drug albumin-bound in serum [5]: 90%
- vismodegib unbound in serum [5]: 9%
- event free survival (EFS) [6]: failed to extend the EFS
- femur length [7]: reduced femur length
- drug levels in the CSF as % of the concentration of unbound vismodegib [8]: 26-78%
- drug levels in the CSF as % of total plasma vismodegib [8]: 0.26%
- Kp [9]: 0.439
- suppression of pRB ([10]; 50 mg/kg IP): sufficient to suppress pRB
- suppression of pRB+ cell fraction in tumors ([10]; single 100 mg/kg IP): similarly suppressed pRB
- suppression of pRB+ cell fraction in tumors ([10]; single 100 mg/kg oral): less suppression
